# The supplement of paper PMC10307832
# Experiments:
# Assay in all cases: relative viability (nuclei count vs DMSO), 5 days (fraction); higher = more cells survive
# IPA-3 + Decitabine = compound: C1=CC=C2C(=C1)C=CC(=C2SSC3=C(C=CC4=CC=CC=C43)O)O [IPA-3] + Nc1ncn([C@H]2C[C@H](O)[C@@H](CO)O2)c(=O)n1 [Decitabine] (partner 2 µM)
# How it was run: (§1)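 Relative viability equals treated-well nuclei counts divided by vehicle-well nuclei counts. Counts came from 4× images of lung cancer cell lines grown in 1536-well plates for 5 days after pin-tool dosing on the day after seeding. Dosing used one drug alone or a fixed anchor-drug dose plus five library-drug doses (not always all listed) in √10 steps, and values are medians of duplicate plates.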
# Doramapimod + Dasatinib = compound: Cc1ccc(-n2nc(C(C)(C)C)cc2NC(=O)Nc2ccc(OCCN3CCOCC3)c3ccccc23)cc1 [Doramapimod] + Cc1nc(Nc2ncc(C(=O)Nc3c(C)cccc3Cl)s2)cc(N2CCN(CCO)CC2)n1 [Dasatinib] (partner 0.075 µM)
# How it was run: as §1
# RAF265 + Trametinib = compound: Cn1c(Nc2ccc(C(F)(F)F)cc2)nc2cc(Oc3ccnc(-c4ncc(C(F)(F)F)[nH]4)c3)ccc21 [RAF265] + CC(=O)Nc1cccc(-n2c(=O)n(C3CC3)c(=O)c3c(Nc4ccc(I)cc4F)n(C)c(=O)c(C)c32)c1 [Trametinib] (partner 0.02 µM)
# How it was run: as §1
# RAF265 + Bortezomib = compound: Cn1c(Nc2ccc(C(F)(F)F)cc2)nc2cc(Oc3ccnc(-c4ncc(C(F)(F)F)[nH]4)c3)ccc21 [RAF265] + CC(C)C[C@H](NC(=O)[C@H](Cc1ccccc1)NC(=O)c1cnccn1)B(O)O [Bortezomib] (partner 0.002 µM)
# How it was run: as §1
Cell Line,relative viability (IPA-3 + Decitabine; first compound 0.2 µM),relative viability (IPA-3 + Decitabine; first compound 0.6325 µM),relative viability (IPA-3 + Decitabine; first compound 2 µM),relative viability (IPA-3 + Decitabine; first compound 6.325 µM),relative viability (IPA-3 + Decitabine; first compound 20 µM),relative viability (Doramapimod + Dasatinib; first compound 0.02 µM),relative viability (Doramapimod + Dasatinib; first compound 0.06325 µM),relative viability (Doramapimod + Dasatinib; first compound 0.2 µM),relative viability (Doramapimod + Dasatinib; first compound 0.6325 µM),relative viability (Doramapimod + Dasatinib; first compound 2 µM),relative viability (RAF265 + Trametinib; first compound 0.01 µM),relative viability (RAF265 + Trametinib; first compound 0.03162 µM),relative viability (RAF265 + Trametinib; first compound 0.1 µM),relative viability (RAF265 + Trametinib; first compound 0.3162 µM),relative viability (RAF265 + Trametinib; first compound 1 µM),relative viability (RAF265 + Bortezomib; first compound 0.01 µM),relative viability (RAF265 + Bortezomib; first compound 0.03162 µM),relative viability (RAF265 + Bortezomib; first compound 0.1 µM),relative viability (RAF265 + Bortezomib; first compound 0.3162 µM),relative viability (RAF265 + Bortezomib; first compound 1 µM)
NCI-H2087,0.344,0.321,0.267,0.261,0.255,0.937,1.07,0.809,0.893,0.837,0.195,0.148,0.154,0.161,0.129,0.772,0.718,0.804,0.621,0.714
PC-3 [JPC-3],0.849,0.837,0.813,0.779,0.855,1,1.04,0.939,1.05,1.02,0.708,0.708,0.761,0.469,0.466,0.751,0.815,0.834,0.393,0.731
H3255,0.634,0.571,0.577,0.548,0.632,0.296,0.56,0.414,0.314,0.351,0.719,0.585,0.657,0.271,0.458,0.901,0.776,1.06,,0.696
EMC-BAC-2,1.02,0.967,0.958,0.819,1.07,0.451,0.279,0.297,0.419,0.283,0.977,0.857,0.85,0.62,0.313,1.07,1,1.08,1.05,0.351
NCI-H650,0.297,0.33,0.292,0.294,0.348,0.517,0.535,0.571,0.586,0.431,1.05,0.972,1.05,0.569,0.328,0.836,0.781,0.793,0.539,0.32
NCI-H1355,0.385,0.36,0.375,0.349,0.34,0.713,0.692,0.724,0.753,0.623,0.438,0.355,0.383,0.283,0.206,1.26,1.19,1.05,1.09,0.804
NCI-H838,0.579,0.444,0.456,0.398,0.443,0.279,0.327,0.315,0.326,0.298,0.542,0.511,0.518,0.462,0.39,0.784,0.899,0.788,0.841,0.572
NCI-H1650,0.44,0.396,0.386,0.349,0.374,0.366,0.294,0.338,0.402,0.217,0.786,0.708,0.568,0.419,0.43,0.224,0.222,0.224,0.207,0.216
NCI-H322M,0.679,0.654,0.749,0.663,0.718,0.276,0.28,0.259,0.262,0.24,0.496,0.421,0.486,0.507,0.409,1.3,1.32,1.14,0.55,0.258
NCI-H661,0.664,0.548,0.528,0.543,0.528,0.703,0.855,1.04,1.19,0.909,0.596,0.484,0.371,0.332,0.339,0.87,0.649,0.862,0.657,0.403
NCI-H520,0.528,0.523,,0.413,0.453,0.183,0.166,0.148,0.213,0.182,0.684,0.65,0.508,0.519,0.338,0.389,0.547,0.545,0.486,0.202
NCI-H441,0.268,0.257,0.205,0.234,0.21,0.413,0.506,0.544,,0.425,0.598,0.504,0.461,0.436,0.457,0.446,,0.499,0.362,0.207
